In ChEMBL document CHEMBL6127010, “NMR structures of small molecules bound to a model of a CUG RNA repeat expansion” (Bioorg Med Chem Lett, 2024):

The compounds below were run on r(CUG) repeat/Muscleblind-like protein 1 (assay: Inhibition of 5'-biotinylated r(CUG) repeat (unknown origin) to His6-tagged MBNL1 (unknown origin) complex formation preincubated for 5 mins followed by compound addition for 15 mins prior to streptavidin-XL664 and anti-His6-Tb antibody addition for 1 hr by TR-FRET method).
Format: protein assay
Compound `N=C(N)Nc1ccc(OC(=O)c2ccc(NC(=N)N)cc2)cc1` has an IC50 of 8 µM.
`COc1cccc(Nc2cc(C)nc3ccc(C(=N)N)cc23)c1` gave an IC50 of 100 µM.
With `NCCN1CCN=C1c1ccc(C(=O)Nc2ccc(C3=NCCN3)cc2)cc1` the IC50 was 19 µM.
